{"source": "patent US9546164B2", "about": "(GENENTECH, INC., priority 2013, dated 2017)", "note": "Structures can show the parent of a compound that is named as a salt.", "data": [{"target": "hNav1.7 (Homo sapiens (Human), UniProt Q15858)", "sequence (Q15858 other isoform, or with tags, fused parts or gaps)": "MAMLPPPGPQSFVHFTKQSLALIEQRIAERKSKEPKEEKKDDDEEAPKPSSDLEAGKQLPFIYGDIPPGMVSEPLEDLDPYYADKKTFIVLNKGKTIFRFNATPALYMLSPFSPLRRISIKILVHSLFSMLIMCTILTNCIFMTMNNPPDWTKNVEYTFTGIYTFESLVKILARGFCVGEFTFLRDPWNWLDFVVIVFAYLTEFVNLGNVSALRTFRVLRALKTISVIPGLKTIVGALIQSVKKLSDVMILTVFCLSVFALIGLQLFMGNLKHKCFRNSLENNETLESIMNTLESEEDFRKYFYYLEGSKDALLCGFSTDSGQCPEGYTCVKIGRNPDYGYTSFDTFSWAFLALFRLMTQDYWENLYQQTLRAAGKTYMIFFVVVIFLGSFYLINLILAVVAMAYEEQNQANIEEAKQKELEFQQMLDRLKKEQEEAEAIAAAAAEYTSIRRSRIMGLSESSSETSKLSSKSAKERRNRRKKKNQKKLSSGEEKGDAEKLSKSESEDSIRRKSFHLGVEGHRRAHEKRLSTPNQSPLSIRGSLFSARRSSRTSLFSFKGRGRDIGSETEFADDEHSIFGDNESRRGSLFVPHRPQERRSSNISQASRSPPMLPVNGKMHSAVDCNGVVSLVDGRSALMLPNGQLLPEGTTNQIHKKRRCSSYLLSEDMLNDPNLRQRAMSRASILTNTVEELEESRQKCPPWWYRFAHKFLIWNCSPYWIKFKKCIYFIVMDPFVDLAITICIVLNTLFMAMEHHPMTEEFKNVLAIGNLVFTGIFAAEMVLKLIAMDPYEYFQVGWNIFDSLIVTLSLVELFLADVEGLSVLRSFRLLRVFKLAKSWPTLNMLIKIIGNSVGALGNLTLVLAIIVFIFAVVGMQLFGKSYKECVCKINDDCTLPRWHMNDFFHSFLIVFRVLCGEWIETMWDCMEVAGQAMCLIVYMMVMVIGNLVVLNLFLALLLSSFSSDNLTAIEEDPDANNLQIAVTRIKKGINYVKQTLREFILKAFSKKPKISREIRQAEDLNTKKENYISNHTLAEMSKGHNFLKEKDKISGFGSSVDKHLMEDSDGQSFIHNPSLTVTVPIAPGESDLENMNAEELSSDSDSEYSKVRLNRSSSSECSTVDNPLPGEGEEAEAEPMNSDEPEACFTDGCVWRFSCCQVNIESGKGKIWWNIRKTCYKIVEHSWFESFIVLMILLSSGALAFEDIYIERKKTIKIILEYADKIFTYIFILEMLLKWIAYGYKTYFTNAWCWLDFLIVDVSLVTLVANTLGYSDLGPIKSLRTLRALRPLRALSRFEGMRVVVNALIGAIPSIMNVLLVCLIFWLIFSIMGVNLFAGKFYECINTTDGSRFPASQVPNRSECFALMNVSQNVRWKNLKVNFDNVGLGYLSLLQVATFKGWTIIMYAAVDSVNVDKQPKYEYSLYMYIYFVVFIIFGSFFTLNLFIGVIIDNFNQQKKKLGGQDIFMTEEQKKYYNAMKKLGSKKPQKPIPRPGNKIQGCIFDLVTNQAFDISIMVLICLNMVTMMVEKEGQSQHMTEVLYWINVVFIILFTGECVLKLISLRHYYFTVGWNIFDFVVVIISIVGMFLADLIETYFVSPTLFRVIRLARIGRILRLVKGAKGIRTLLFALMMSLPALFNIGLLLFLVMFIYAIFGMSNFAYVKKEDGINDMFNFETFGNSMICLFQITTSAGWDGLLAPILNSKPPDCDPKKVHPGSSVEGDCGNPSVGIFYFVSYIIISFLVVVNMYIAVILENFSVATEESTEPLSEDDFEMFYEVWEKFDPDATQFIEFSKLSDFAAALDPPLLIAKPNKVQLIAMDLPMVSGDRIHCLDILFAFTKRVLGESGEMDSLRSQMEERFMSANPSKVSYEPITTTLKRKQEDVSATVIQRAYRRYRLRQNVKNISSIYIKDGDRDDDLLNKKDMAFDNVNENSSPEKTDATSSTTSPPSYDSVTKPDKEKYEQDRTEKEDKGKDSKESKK", "sequence (Q07699 19-218 partner)": "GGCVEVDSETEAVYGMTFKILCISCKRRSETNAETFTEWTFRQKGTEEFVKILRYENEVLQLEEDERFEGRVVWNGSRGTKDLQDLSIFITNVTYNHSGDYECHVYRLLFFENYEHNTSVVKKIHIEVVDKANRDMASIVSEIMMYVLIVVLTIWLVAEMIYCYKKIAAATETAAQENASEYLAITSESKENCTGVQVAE", "experiment": "Tritiated sulfonamide competitive binding to membranes from cells expressing hNav1.7 and the β1 subunit;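 further: Filter-bound radioactivity counted by liquid scintillation, nonspecific binding defined with excess unlabelled ligand, IC50 fitted to percent inhibition of specific binding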", "conditions": "not given", "units": {"IC50": "nM"}, "values": [{"compound": "C[C@@H]1CN(Cc2cc(F)c(C(=O)NS(C)(=O)=O)cc2C2CC2)CCN1[C@@H](C)c1cc(Cl)cc(Cl)c1", "note": "[Example 571, 5-cyclopropyl-4-(((R)-4-((S)-1-(3,5-dichlorophenyl)ethyl)-3-methylpiperazin-1-yl)methyl)-2-fluoro-N-(methylsulfonyl)benzamide]", "IC50": 44.3}, {"compound": "Cn1nc(-c2ccccc2)cc1CN1CCC[C@@H](Oc2cc(F)c(C(=O)NS(C)(=O)=O)cc2C2CC2)C1", "note": "[Example 12, (R)-5-cyclopropyl-2-fluoro-4-((1-((1-methyl-3-phenyl-1H-pyrazol-5-yl)methyl)piperidin-3-yl)oxy)-N-(methylsulfonyl)benzamide]", "IC50": 11.3}, {"compound": "O=C(NS(=O)(=O)C1CC1)c1cc(C2CC2)c(CN2CCC(Oc3cc(Cl)cc(OC(F)(F)F)c3)CC2)cc1F", "note": "[Example 549, 4-((4-(3-chloro-5-(trifluoromethoxy)phenoxy)piperidin-1-yl)methyl)-5-cyclopropyl-N-(cyclopropylsulfonyl)-2-fluorobenzamide, trifluoroacetic acid salt]", "IC50": 4.4}, {"compound": "CS(=O)(=O)NC(=O)c1cc(C2CC2)c(CN2CCC([S+]([O-])c3cc(Cl)cc(Cl)c3)CC2)cc1F", "note": "(stereo not shown) [Example 534, 5-cyclopropyl-4-((4-((3,5-dichlorophenyl)sulfinyl)piperidin-1-yl)methyl)-2-fluoro-N-(methylsulfonyl)benzamide, trifluoroacetic acid salt]", "IC50": 879}, {"compound": "CS(=O)(=O)NC(=O)c1cc(C2CC2)c(CN2CCN(Cc3cc(Cl)cc(Cl)c3)CC2)cc1F", "note": "[Example 517, 5-cyclopropyl-4-((4-(3,5-dichlorobenzyl)piperazin-1-yl)methyl)-2-fluoro-N-(methylsulfonyl)benzamide, trifluoroacetic acid salt]", "IC50": 15}]}, {"target": "hNav1.7 (Homo sapiens (Human), UniProt Q15858)", "experiment": "Tritiated sulfonamide competitive binding to membranes from cells expressing hNav1.7 and the β1 subunit", "conditions": "read-out: Ligand Binding Assay; 100 pM [3H]compound, membranes with hNav1.7 and β1 subunit, 18 h, room temperature", "units": {"IC50": "nM"}, "values": [{"compound": "CS(=O)(=O)NC(=O)c1cc(C2CC2)c(OCC2CCN(Cc3cc(Cl)cc(Cl)c3F)CC2)cc1F", "note": "[Example 242, 5-Cyclopropyl-4-((1-(3,5-dichloro-2-fluorobenzyl)piperidin-4-yl)methoxy)-2-fluoro-N-(methylsulfonyl)benzamide]", "IC50": 3}, {"compound": "O=C(NS(=O)(=O)C1CC1)c1cc(C2CC2)c(OC[C@@H]2C[C@H]3CC[C@@H](C2)N3Cc2cc(C(F)(F)F)ccc2Cl)cc1F", "note": "[Example 397, 4-(((1R,3S,5S)-8-(2-chloro-5-(trifluoromethyl)benzyl)-8-azabicyclo[3.2.1]octan-3-yl)methoxy)-5-cyclopropyl-N-(cyclopropylsulfonyl)-2-fluorobenzamide, trifluoroacetic acid salt]", "IC50": 5.7}, {"compound": "CC1(COc2cc(F)c(C(=O)NS(C)(=O)=O)cc2C2CC2)CCN(Cc2cc(C(F)(F)F)cc(Cl)c2F)CC1", "note": "[Example 141, 4-((1-(3-chloro-2-fluoro-5-(trifluoromethyl)benzyl)-4-methylpiperidin-4-yl)methoxy)-5-cyclopropyl-2-fluoro-N-(methylsulfonyl)benzamide]", "IC50": 3.9}, {"compound": "COC[C@H](c1ccccc1)N1CCC(COc2cc(F)c(C(=O)NS(C)(=O)=O)cc2C2CC2)CC1", "note": "[Example 223, (S)-5-cyclopropyl-2-fluoro-4-((1-(2-methoxy-1-phenylethyl)piperidin-4-yl)methoxy)-N-(methylsulfonyl)benzamide]", "IC50": 250}, {"compound": "C[C@@H](c1cc(Cl)cc(Cl)c1)N1CCC(COc2cc(F)c(C(=O)NS(=O)(=O)C3CC3)cc2Cl)CC1", "note": "[Example 403, (S)-5-chloro-N-(cyclopropylsulfonyl)-4-((1-(1-(3,5-dichlorophenyl)ethyl)piperidin-4-yl)methoxy)-2-fluorobenzamide, trifluoroacetic acid salt]", "IC50": 17}, {"compound": "C[C@H]1[C@H](Oc2cc(F)c(C(=O)NS(C)(=O)=O)cc2C2CC2)CCCN1Cc1cc(Cl)cc(Cl)c1", "note": "[Example 331, 5-cyclopropyl-4-(((2S,3R)-1-(3,5-dichlorobenzyl)-2-methylpiperidin-3-yl)oxy)-2-fluoro-N-(methylsulfonyl)benzamide, trifluoroacetic acid salt]", "IC50": 32.2}, {"compound": "C[C@@H](c1ccc(F)cc1)N1CCC[C@@H](Oc2cc(F)c(C(=O)NS(C)(=O)=O)cc2C2CC2)C1", "note": "(single isomer, unassigned) [Example 315]", "IC50": 19.1}, {"compound": "O=C(NS(=O)(=O)C1CC1)c1cc(C2CC2)c(OCC2CCN(C(=O)c3ccccc3C(F)(F)F)CC2)cc1F", "note": "[Example 256, 5-Cyclopropyl-N-(cyclopropylsulfonyl)-2-fluoro-4-((1-(2-(trifluoromethyl)benzoyl)piperidin-4-yl)methoxy)benzamide]", "IC50": 290}, {"compound": "O=C(NS(=O)(=O)N1CCC1)c1cc(C2CC2)c(CN2CCC[C@H](Oc3cc(Cl)cc(Cl)c3)C2)cc1F", "note": "[Example 54, (S)—N-(azetidin-1-ylsulfonyl)-5-cyclopropyl-4-((3-(3,5-dichlorophenoxy)piperidin-1-yl)methyl)-2-fluorobenzamide, acetic acid salt]", "IC50": 22}, {"compound": "O=C(NS(=O)(=O)C1CC1)c1cc(C2CC2)c(OCCC2CCN(Cc3cc(Cl)cc(Cl)c3)CC2)cc1F", "note": "[Example 304, 5-cyclopropyl-N-(cyclopropylsulfonyl)-4-(2-(1-(3,5-dichlorobenzyl)piperidin-4-yl)ethoxy)-2-fluorobenzamide, trifluoroacetic acid salt]", "IC50": 3.7}, {"compound": "CS(=O)(=O)NC(=O)c1cc(C2CC2)c(OCC2CN(C(=O)c3cc(Cl)cc(Cl)c3)C2)cc1F", "note": "[Example 134, 5-Cyclopropyl-4-((1-(3,5-dichlorobenzoyl)azetidin-3-yl)methoxy)-2-fluoro-N-(methylsulfonyl)benzamide]", "IC50": 346}, {"compound": "CCS(=O)(=O)NC(=O)c1cc(C2CC2)c(OCC2(C)CN([C@@H](C)c3cc(Cl)cc(Cl)c3)C2)cc1F", "note": "(single isomer, unassigned) [Example 289]", "IC50": 3.5}, {"compound": "CS(=O)(=O)NC(=O)c1cc(C2CC2)c(OCC2CCN(C(=O)c3ccc(Cl)cc3Cl)CC2)cc1F", "note": "[Example 257, 5-Cyclopropyl-4-((1-(2,4-dichlorobenzoyl)piperidin-4-yl)methoxy)-2-fluoro-N-(methylsulfonyl)benzamide]", "IC50": 270}, {"compound": "O=C(NS(=O)(=O)N1CCC1)c1cc(C2CC2)c(OC[C@H]2CCCN(Cc3ccc(F)cc3Cl)C2)cc1F", "note": "[Example 339, (S)—N-(azetidin-1-ylsulfonyl)-4-((1-(2-chloro-4-fluorobenzyl)piperidin-3-yl)methoxy)-5-cyclopropyl-2-fluorobenzamide, trifluoroacetic acid salt]", "IC50": 16.5}, {"compound": "CS(=O)(=O)NC(=O)c1cc(C2CC2)c(OCC2CCN([C@H](CO)c3cc(Cl)cc(Cl)c3)CC2)cc1F", "note": "[Example 267, (S)-5-cyclopropyl-4-((1-(1-(3,5-dichlorophenyl)-2-hydroxyethyl)piperidin-4-yl)methoxy)-2-fluoro-N-(methylsulfonyl)benzamide]", "IC50": 47}, {"compound": "O=C(NS(=O)(=O)N1CCC1)c1cc(C2CC2)c(OCC2CCN(Cc3ccc(C4CC4)cc3Cl)CC2)cc1F", "note": "[Example 417, N-(azetidin-1-ylsulfonyl)-4-((1-(2-chloro-4-cyclopropylbenzyl)piperidin-4-yl)methoxy)-5-cyclopropyl-2-fluorobenzamide, trifluoroacetic acid salt]", "IC50": 5.7}, {"compound": "CCS(=O)(=O)NC(=O)c1cc(C2CC2)c(OC[C@@H]2CC[C@@H](C)N([C@H](C)c3cc(Cl)cc(Cl)c3)C2)cc1F", "note": "[Example 345, 5-cyclopropyl-4-(((3R,6R)-1-((R)-1-(3,5-dichlorophenyl)ethyl)-6-methylpiperidin-3-yl)methoxy)-N-(ethylsulfonyl-2-fluorobenzamide, trifluoroacetic acid salt]", "IC50": 7.8}, {"compound": "CS(=O)(=O)NC(=O)c1cc(C2CC2)c(OCC2CCN(S(=O)(=O)c3ccccc3C(F)(F)F)CC2)cc1F", "note": "[Example 370, 5-cyclopropyl-2-fluoro-N-(methylsulfonyl)-4-((1-((2-(trifluoromethyl)phenyl)sulfonyl)piperidin-4-yl)methoxy)benzamide]", "IC50": 30.8}, {"compound": "5-cyclopropyl-2-fluoro-N-(methylsulfonyl)-4-((1-(6-(trifluoromethyl)pyridin-2-yl)piperidin-4-yl)methoxy)benzamide [Example 592]", "IC50": 5.4}, {"compound": "Cc1ccc(CN2CCC[C@@H](Oc3cc(F)c(C(=O)NS(C)(=O)=O)cc3C3CC3)C2)c(C)c1", "note": "[Example 423, (R)-5-cyclopropyl-4-((1-(2,4-dimethylbenzyl)piperidin-3-yl)oxy)-2-fluoro-N-(methylsulfonyl)benzamide, trifluoroacetic acid salt]", "IC50": 2.1}, {"compound": "CC1(COc2cc(F)c(C(=O)NS(=O)(=O)C3CC3)cc2C2CC2)CN(c2ccc(Cl)c(C(F)(F)F)n2)C1", "note": "[Example 485, 4-((1-(5-chloro-6-(trifluoromethyl)pyridin-2-yl)-3-methylazetidin-3-yl)methoxy)-5-cyclopropyl-N-(cyclopropylsulfonyl)-2-fluorobenzamide]", "IC50": 4.5}, {"compound": "C[C@@H](c1ccc(F)cc1Cl)N1CCC[C@@H](Oc2cc(F)c(C(=O)NS(C)(=O)=O)cc2C2CC2)C1", "note": "[Example 295, 4-(((R)-1-((S)-1-(2-chloro-4-fluorophenyl)ethyl)piperidin-3-yl)oxy)-5-cyclopropyl-2-fluoro-N-(methylsulfonyl)benzamide]", "IC50": 2.3}, {"compound": "CCS(=O)(=O)NC(=O)c1cc(C2CC2)c(OCC2CCN([C@@H](COC)c3ccc(Cl)cc3Cl)CC2)cc1F", "note": "[Example 287, (R)-5-cyclopropyl-4-((1-(1-(2,4-dichlorophenyl)-2-methoxyethyl)piperidin-4-yl)methoxy)-N-(ethylsulfonyl)-2-fluorobenzamide]", "IC50": 3.5}, {"compound": "COC[C@@H](c1ccc(F)c(C(F)(F)F)c1)N1CCC(COc2cc(F)c(C(=O)NS(C)(=O)=O)cc2C2CC2)CC1", "note": "(single isomer, unassigned) [Example 187]", "IC50": 5}, {"compound": "Cc1ccc(CN2CCC[C@@H](Oc3cc(F)c(C(=O)NS(C)(=O)=O)cc3C3CC3)C2)c(Cl)c1", "note": "[Example 424, (R)-4-((1-(2-chloro-4-methylbenzyl)piperidin-3-yl)oxy)-5-cyclopropyl-2-fluoro-N-(methylsulfonyl)benzamide, trifluoroacetic acid salt]", "IC50": 2.5}, {"compound": "CS(=O)(=O)NC(=O)c1cc(C2CC2)c(OCC2CCN(Cc3ccccc3F)CC2)cc1F", "note": "[Example 127, 5-Cyclopropyl-2-fluoro-4-((1-(2-fluorobenzyl)piperidin-4-yl)methoxy)-N-(methylsulfonyl)benzamide]", "IC50": 578}]}]}
